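The compound was tested at five concentrations on cells cultured in 96-well plates, with a 48-hour exposure period. TGI denotes the concentration required for complete inhibition of growth.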
Key:
Test in all cases: NCI-60 cell line screen, 48 h
[1] = tested on: SK-MEL-5 melanoma
[2] = tested on: SF-539 CNS
[3] = tested on: OVCAR-8 ovarian
[4] = tested on: A498 renal
[5] = tested on: HT29 colon
[6] = tested on: SK-MEL-28 melanoma
[7] = tested on: MDA-MB-231 breast
[8] = tested on: OVCAR-4 ovarian
[9] = tested on: SW-620 colon
[10] = tested on: ACHN renal
[11] = tested on: M14 melanoma
[12] = tested on: NCI-H460 lung
[13] = tested on: CAKI-1 renal
[14] = tested on: U251 CNS
[15] = tested on: T-47D breast
[16] = tested on: KM12 colon
[17] = tested on: UO-31 renal
[18] = tested on: UACC-62 melanoma
[19] = tested on: HCT-116 colon
[20] = tested on: UACC-257 melanoma
[21] = tested on: MCF7 breast
[22] = tested on: SK-OV-3 ovarian
[23] = tested on: RXF 393 renal
[24] = tested on: NCI-H226 lung
[25] = tested on: A549 NSCLC
[26] = tested on: K-562 leukemia
[27] = tested on: OVCAR-5 ovarian
[28] = tested on: HCT-15 colon
[29] = tested on: HL-60(TB) leukemia
[30] = tested on: RPMI-8226 leukemia
[31] = tested on: DU-145 prostate
[32] = tested on: HOP-62 NSCLC
[33] = tested on: PC-3 prostate
[34] = tested on: SNB-19 CNS
[35] = tested on: EKVX NSCLC
[36] = tested on: MDA-N
[37] = tested on: HCC-2998 colon
[38] = tested on: MDA-MB-435
[39] = tested on: NCI-H23 lung
[40] = tested on: 786-0 renal
[41] = tested on: MOLT-4 leukemia
[42] = tested on: BT-549 breast
[43] = tested on: LOX IMVI melanoma
[44] = tested on: SF-295 CNS
[45] = tested on: SN12C renal
[46] = tested on: CCRF-CEM leukemia
[47] = tested on: NCI-H522 lung
[48] = tested on: TK-10 renal
[49] = tested on: COLO 205 colon
[50] = tested on: SR leukemia
[51] = tested on: SNB-75 CNS
[52] = tested on: IGROV1 ovarian
[53] = tested on: NCI/ADR-RES ovarian
[54] = tested on: HOP-92 NSCLC
[55] = tested on: HS 578T breast
[56] = tested on: SK-MEL-2 melanoma
[57] = tested on: OVCAR-3 ovarian
[58] = tested on: SF-268 CNS
[59] = tested on: MALME-3M melanoma

Measured: TGI

COC(=O)CCC12CCC(O1)c1ccccc12 (configuration not stated)
> 100 µM: [1] | [2] | [3] | [4] | [5] | [6] | [7] | [8] | [9] | [10] | [11] | [12] | [13] | [14] | [15] | [16] | [17] | [18] | [19] | [20] | [21] | [22] | [23] | [24] | [25] | [26] | [27] | [28] | [29] | [30] | [31] | [32] | [33] | [34] | [35] | [36] | [37] | [38] | [39] | [40] | [41] | [42] | [43] | [44] | [45] | [46] | [47] | [48] | [49] | [50] | [51] | [52] | [53] | [54]

CN(C)Cc1cc(N=Nc2ccccc2)cc(CN(C)C)c1O
94.3 µM: [46]
> 100 µM: [1] | [2] | [55] | [3] | [4] | [5] | [6] | [7] | [8] | [9] | [10] | [11] | [12] | [13] | [56] | [14] | [15] | [16] | [17] | [18] | [19] | [20] | [22] | [23] | [57] | [24] | [25] | [26] | [27] | [28] | [30] | [31] | [32] | [33] | [34] | [35] | [36] | [37] | [58] | [38] | [39] | [40] | [59] | [41] | [42] | [43] | [44] | [45] | [47] | [48] | [49] | [50] | [51] | [52] | [53] | [54]
66.9 µM: [29]
